Three compounds from article PMC11839852, “Preclinical comparison of (radio)lanthanides using mass spectrometry and nuclear imaging techniques: biodistribution of lanthanide-based tumor-targeting agents and lanthanides in ionic form” (European Journal of Nuclear Medicine and Molecular Imaging, 2024) can be followed below.

The structures appear in SMILES notation. Where a SMILES comes first, the peptide text is derived from it. Bridges are numbered along the chain shown (N, C = ends). [ ]: non-standard residue; d: D form. The star is where a group is joined. DOTA = O=C(O)CN1CCN(CC(=O)O)CCN(CC(=O)*)CCN(CC(=O)O)CC1; dPhe(4-NHCONH2) = NC(=O)Nc1ccc(C[C@@H](N)C(=O)O)cc1; Phe(4-Cl) = N[C@@H](Cc1ccc(Cl)cc1)C(=O)O

As usually defined, the tissue uptake is the percentage of the injected dose found per gram of tissue.

The nature of data set [1]: Biodistribution of Ln-DOTATATE and Ln-DOTA-LM3 (multiplexed ICP-MS). As to conditions: female, CD1 nude, mouse, intravenous, 0.5 nmol, AR42J tumor-bearing mice; for tissue uptake at 1 h: 1 h p.i.; for tissue uptake at 24 h: 24 h p.i.
In data set [2] the test system is AR42J, PC-3 PIP and KB tumor cells. Nature of the data set: In vitro cell uptake of Ln-DTPA complexes. The data set is classed as cell-based. As to conditions: all tumor cell lines, 1 h and 4 h incubation. As for the experimental part: A mixture of equal molar amounts of the lanthanide chloride salts (100 nM stock solutions of ^natLuCl3, ^natTbCl3, ^natGdCl3, and ^natEuCl3, diluted in saline with an adjusted pH value to 3.5‒4.0) was prepared to obtain a final concentration of 10 pmol/mL (2.5 pmol/mL per lanthanide salt) and tested with AR42J, PC-3 PIP and KB tumor cells according to the same protocol as described for the Ln-labeled biomolecules (Supplementary Material). Analogous in vitro cell uptake studies were also performed with lanthanide metal complexes of diethylenetriaminepentaacetic acid (DTPA, Sigma Aldrich Chemie, Steinheim, Germany) to obtain a final concentration of 10 pmol/mL (2.5 pmol/mL per lanthanide complex) (Supplementary Material).
Methods: The same experimental setting as described for Ln-labeled biomolecules was applied to perform uptake and internalization studies with the lanthanide DTPA complexes (Ln-DTPA; Ln = ^natLu, ^natTb, ^natGd and ^natEu). The lanthanides were dissolved in 0.05 M hydrochloric acid and further diluted in a 1:5 (v/v) mixture of sodium acetate (0.5 M) and hydrochloric acid (0.05 M), pH ~4.5. A 10-fold molar excess of DTPA (5 mM, aq.) was added to each lanthanide dilution and the reaction mixtures were incubated for 10 min at 95 °C. The complexed lanthanides were further diluted in saline with an adjusted pH value to 3.5-4.0 for in vitro experiments. The applied solution was a mixture of the four Ln-DTPA complexes at a final concentration of 0.4 µM. Of these mixtures, 25 μL were added to the well with the corresponding tumor cells. The tumor cells were incubated for 1 h and 4 h, respectively, at 37 °C and 5% CO2. After incubation, the tumor cells were treated as described for the Ln-labeled biomolecules and processed for the measurement with ICP-MS.

Data set [3] concerns non-tumor-bearing immunocompetent FVB mice. Put plainly: Biodistribution of Ln-DTPA complexes (multiplexed ICP-MS). As to conditions: 1 h p.i.
The mark [4] stands for this setting: AR42J tumor, Tissue uptake: AR42J tumor.
The mark [5] stands for this setting: intestines, Tissue uptake: Intestines.
Where [6] appears, read: kidneys, Tissue uptake: Kidneys.
Setting [7] is: pancreas, Tissue uptake: Pancreas.
Setting [8] is: salivary glands, Tissue uptake: Salivary glands.

In the case of `C[C@@H](O)[C@@H]1NC(=O)[C@H](CCCCN)NC(=O)[C@@H](Cc2ccc(NC(N)=O)cc2)NC(=O)[C@H](Cc2ccc(O)cc2)NC(=O)[C@H](NC(=O)[C@H](Cc2ccc(Cl)cc2)NC(=O)CN2CCN(CC(=O)O)CCN(CC(=O)O)CCN(CC(=O)O)CC2)CSSC[C@@H](C(=O)N[C@H](Cc2ccc(O)cc2)C(N)=O)NC1=O` [[^175Lu]Lu-DOTA-LM3] ({DOTA}-[Phe(4-Cl)][dC]Y[dPhe(4-NHCONH2)]KTC[dY]-NH2; disulfide 2-7 (inferred); C-terminus assumed), the tissue uptake at 1 h was 4.5 ± 0.2 %ID/g in data set [1] (setting [4]); 0.51 ± 0.1 %ID/g in data set [1] (blood, Tissue uptake: Blood); less than 0.5 %ID/g in data set [1] (bone, Tissue uptake: Bone); less than 0.5 %ID/g in data set [1] (brain, Tissue uptake: Brain); less than 0.5 %ID/g in data set [1] (heart, Tissue uptake: Heart); 0.6 ± 0.24 %ID/g in data set [1] (setting [5]). The tissue uptake at 1 h in data set [1] (setting [6]) was 11 ± 1 %ID/g; in data set [1] (muscle, Tissue uptake: Muscle) it was less than 0.5 %ID/g; in data set [1] (setting [7]) it was 1.1 ± 0.1 %ID/g; in data set [1] (setting [8]) it was less than 0.5 %ID/g; in data set [1] (spleen, Tissue uptake: Spleen), less than 0.5 %ID/g; in data set [1] (stomach, Tissue uptake: Stomach), 1.3 ± 0.2 %ID/g. For the same compound, the tissue uptake at 24 h is 2.7 ± 0.3 %ID/g in data set [1] (setting [4]); less than 0.5 %ID/g in data set [1] (blood, Tissue uptake: Blood); less than 0.5 %ID/g in data set [1] (bone, Tissue uptake: Bone); less than 0.5 %ID/g in data set [1] (brain, Tissue uptake: Brain); less than 0.5 %ID/g in data set [1] (heart, Tissue uptake: Heart); less than 0.5 %ID/g in data set [1] (setting [5]). Moreover, the tissue uptake at 24 h in data set [1] (setting [6]) is 4.8 ± 0.5 %ID/g; in data set [1] (liver, Tissue uptake: Liver) it was less than 0.5 %ID/g; in data set [1] (lung, Tissue uptake: Lung), less than 0.5 %ID/g; in data set [1] (muscle, Tissue uptake: Muscle), less than 0.5 %ID/g; in data set [1] (setting [7]) it was 0.51 ± 0.17 %ID/g; in data set [1] (setting [8]), less than 0.5 %ID/g. In data set [1] (spleen, Tissue uptake: Spleen), the tissue uptake at 24 h is less than 0.5 %ID/g.

`O=C([O-])CN(CCN(CC(=O)[O-])CC(=O)[O-])CCN(CC(=O)[O-])CC(=O)[O-].[Lu+3]` [[^175Lu]Lu-DTPA]: the “Lanthanide detected in cell samples (background levels)” value in data set [2] is less than 20 ppt. Moreover, in data set [3], the “Tissue uptake: Blood” value was less than 0.5 % ID/g, the “Tissue uptake: Bone” value is less than 0.5 % ID/g, the “Tissue uptake: Brain” value is listed as less than 0.5 % ID/g and the “Tissue uptake: Heart” value was less than 0.5 % ID/g. Further, in data set [3], the “Tissue uptake: Intestines” value is less than 0.5 % ID/g, the “Tissue uptake: Kidneys” value was 2.3 ± 1.0 % ID/g, the “Tissue uptake: Liver” value is recorded as less than 0.5 % ID/g and the “Tissue uptake: Lung” value is on record as less than 0.5 % ID/g. Also, in data set [3], the “Tissue uptake: Muscle” value is less than 0.5 % ID/g, the “Tissue uptake: Pancreas” value was less than 0.5 % ID/g, the “Tissue uptake: Salivary glands” value is reported as less than 0.5 % ID/g and the “Tissue uptake: Spleen” value is on record as less than 0.5 % ID/g. Further, in data set [3], the “Tissue uptake: Stomach” value was less than 0.5 % ID/g.

Regarding `O=C([O-])CN(CCN(CC(=O)[O-])CC(=O)[O-])CCN(CC(=O)[O-])CC(=O)[O-].[Eu+3]` [[^153Eu]Eu-DTPA], in data set [2], the “Lanthanide detected in cell samples (background levels)” value is on record as less than 20 ppt. Also, in data set [3], the “Tissue uptake: Blood” value is less than 0.5 % ID/g, the “Tissue uptake: Bone” value is given as less than 0.5 % ID/g, the “Tissue uptake: Brain” value is on record as less than 0.5 % ID/g and the “Tissue uptake: Heart” value is reported as less than 0.5 % ID/g. Further, in data set [3], the “Tissue uptake: Intestines” value was less than 0.5 % ID/g, the “Tissue uptake: Kidneys” value is listed as 2.1 ± 1.0 % ID/g, the “Tissue uptake: Liver” value is less than 0.5 % ID/g and the “Tissue uptake: Lung” value was less than 0.5 % ID/g. Moreover, in data set [3], the “Tissue uptake: Muscle” value is reported as less than 0.5 % ID/g, the “Tissue uptake: Pancreas” value is listed as less than 0.5 % ID/g, the “Tissue uptake: Salivary glands” value was less than 0.5 % ID/g and the “Tissue uptake: Spleen” value was less than 0.5 % ID/g. The “Tissue uptake: Stomach” value in data set [3] was found to be 0.51 ± 0.07 % ID/g.
